Reference: ChEMBL document CHEMBL1201862, “PubChem BioAssay data set” (2004)
Active and inactive are the calls of the source.

Assays:
[1] = biological target: T1, Caspase-3 (Homo sapiens, UniProt P42574); format: functional;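 further: Dose-response selectivity test against caspase-3 for candidate inhibitors of sentrin-specific proteases (SENPs)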
T1 sequence (P42574 whole entry): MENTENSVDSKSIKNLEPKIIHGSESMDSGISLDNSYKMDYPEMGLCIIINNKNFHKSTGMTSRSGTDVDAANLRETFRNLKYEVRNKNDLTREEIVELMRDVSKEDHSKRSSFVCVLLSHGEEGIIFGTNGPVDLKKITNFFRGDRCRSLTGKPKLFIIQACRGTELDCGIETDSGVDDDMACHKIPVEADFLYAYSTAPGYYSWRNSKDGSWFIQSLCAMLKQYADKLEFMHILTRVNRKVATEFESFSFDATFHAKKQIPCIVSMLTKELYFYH

[2] = biological target: T2, Sentrin-specific protease 7 (Homo sapiens, UniProt Q9BQF6); format: functional;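 further: Luminescence-based dose-response confirmation of ultra-high-throughput screening hits, measuring inhibition of SENP7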
T2 sequence (Q9BQF6 whole entry): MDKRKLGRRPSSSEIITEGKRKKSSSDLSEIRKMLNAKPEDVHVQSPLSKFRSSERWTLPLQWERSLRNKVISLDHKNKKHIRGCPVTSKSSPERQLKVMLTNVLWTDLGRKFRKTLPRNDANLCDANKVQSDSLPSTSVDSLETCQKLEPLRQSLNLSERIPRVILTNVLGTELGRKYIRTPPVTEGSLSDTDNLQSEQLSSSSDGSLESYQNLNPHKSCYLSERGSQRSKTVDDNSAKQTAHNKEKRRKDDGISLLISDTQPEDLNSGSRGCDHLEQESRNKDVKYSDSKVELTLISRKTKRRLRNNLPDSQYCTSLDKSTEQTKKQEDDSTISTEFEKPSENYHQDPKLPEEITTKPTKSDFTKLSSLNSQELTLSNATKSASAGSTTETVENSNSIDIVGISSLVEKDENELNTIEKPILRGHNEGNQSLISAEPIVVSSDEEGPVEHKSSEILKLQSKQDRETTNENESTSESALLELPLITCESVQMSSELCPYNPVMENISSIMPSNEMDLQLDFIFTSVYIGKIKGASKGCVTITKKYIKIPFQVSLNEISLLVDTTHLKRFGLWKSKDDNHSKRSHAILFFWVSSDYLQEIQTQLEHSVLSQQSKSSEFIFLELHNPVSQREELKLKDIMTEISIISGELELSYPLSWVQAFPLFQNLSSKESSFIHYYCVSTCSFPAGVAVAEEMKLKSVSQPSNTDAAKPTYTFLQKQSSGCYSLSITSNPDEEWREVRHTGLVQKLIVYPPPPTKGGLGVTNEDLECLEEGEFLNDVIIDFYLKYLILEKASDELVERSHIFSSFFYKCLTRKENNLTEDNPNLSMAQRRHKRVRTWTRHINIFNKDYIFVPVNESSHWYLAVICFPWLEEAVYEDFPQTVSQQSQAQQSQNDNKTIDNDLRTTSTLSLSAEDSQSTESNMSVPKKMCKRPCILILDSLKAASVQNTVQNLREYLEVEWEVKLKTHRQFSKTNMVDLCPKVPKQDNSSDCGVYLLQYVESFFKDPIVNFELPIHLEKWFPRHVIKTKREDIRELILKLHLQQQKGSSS

[3] = biological target: T3, Sentrin-specific protease 6 (Homo sapiens, UniProt Q9GZR1); format: functional;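 further: Luminescence-based dose-response confirmatory assay of SENP6 inhibition, following up an ultra-high-throughput screen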
T3 sequence (Q9GZR1 whole entry): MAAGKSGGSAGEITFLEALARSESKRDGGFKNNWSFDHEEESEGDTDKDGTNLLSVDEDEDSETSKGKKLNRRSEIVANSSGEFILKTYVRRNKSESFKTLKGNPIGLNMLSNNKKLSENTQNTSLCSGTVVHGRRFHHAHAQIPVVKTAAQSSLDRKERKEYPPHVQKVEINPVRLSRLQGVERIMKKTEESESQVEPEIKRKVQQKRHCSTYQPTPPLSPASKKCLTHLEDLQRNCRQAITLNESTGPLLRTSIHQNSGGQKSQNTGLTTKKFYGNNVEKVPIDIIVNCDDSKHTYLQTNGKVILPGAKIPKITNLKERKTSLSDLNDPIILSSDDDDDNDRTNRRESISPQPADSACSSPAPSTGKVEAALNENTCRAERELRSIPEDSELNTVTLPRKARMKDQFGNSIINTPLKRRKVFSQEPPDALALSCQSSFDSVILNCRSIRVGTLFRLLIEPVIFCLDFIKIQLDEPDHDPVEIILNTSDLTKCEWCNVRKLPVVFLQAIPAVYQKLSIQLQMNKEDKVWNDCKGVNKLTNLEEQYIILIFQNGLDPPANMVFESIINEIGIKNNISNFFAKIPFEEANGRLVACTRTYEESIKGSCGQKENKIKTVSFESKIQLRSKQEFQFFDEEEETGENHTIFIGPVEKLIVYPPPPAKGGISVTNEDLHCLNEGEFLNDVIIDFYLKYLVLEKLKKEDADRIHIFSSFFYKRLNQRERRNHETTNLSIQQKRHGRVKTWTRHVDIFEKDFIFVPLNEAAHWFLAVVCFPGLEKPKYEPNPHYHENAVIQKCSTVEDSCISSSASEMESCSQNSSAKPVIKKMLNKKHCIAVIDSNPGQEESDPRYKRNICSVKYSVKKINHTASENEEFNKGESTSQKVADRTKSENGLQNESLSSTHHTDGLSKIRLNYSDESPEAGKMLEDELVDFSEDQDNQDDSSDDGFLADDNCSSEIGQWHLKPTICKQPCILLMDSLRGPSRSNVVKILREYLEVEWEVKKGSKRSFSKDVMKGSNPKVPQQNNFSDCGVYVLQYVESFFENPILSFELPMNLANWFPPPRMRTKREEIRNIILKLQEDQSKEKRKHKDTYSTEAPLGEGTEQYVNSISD

[4] = biological target: T4, Sentrin-specific protease 8 (Homo sapiens, UniProt Q96LD8); format: functional;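 further: luminescence read-out of SENP8 inhibition, dose-response confirmation following an ultra-high-throughput screen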
T4 sequence (Q96LD8 whole entry): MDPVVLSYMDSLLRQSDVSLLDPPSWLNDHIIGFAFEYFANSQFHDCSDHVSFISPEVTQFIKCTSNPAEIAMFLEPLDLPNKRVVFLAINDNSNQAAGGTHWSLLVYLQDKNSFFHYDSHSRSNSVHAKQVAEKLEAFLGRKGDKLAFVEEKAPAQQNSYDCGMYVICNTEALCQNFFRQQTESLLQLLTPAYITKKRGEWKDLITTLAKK

[5] = tested on: H9c2; assay: cells; format: functional, cell-based; settings: Rattus norvegicus, H9c2, Myocardium;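 further: confirmatory concentration-response retest of ultra-high-throughput screening hits for modulation of myocardial damage; cell death induced by hydrogen peroxide oxidative stress; compound pretreatment for 60 min then peroxide exposure for 2 h; potency is for protecting the cells against peroxide damage rather than for killing them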
[6] = biological target: Mitochondrial peptide methionine sulfoxide reductase (Bos taurus, UniProt P54149); assay: Absorbance-based biochemical high throughput dose response assay for activators of Methionine sulfoxide reductase A (MsrA).; format: functional
[7] = biological target: T5, Caspase-6 (Homo sapiens, UniProt P55212); assay: human caspase-6 inhibitors, dose response, biochemical, VEID-R110 fluorescence, cherry-pick (AID 720632)
T5 sequence (P55212 whole entry): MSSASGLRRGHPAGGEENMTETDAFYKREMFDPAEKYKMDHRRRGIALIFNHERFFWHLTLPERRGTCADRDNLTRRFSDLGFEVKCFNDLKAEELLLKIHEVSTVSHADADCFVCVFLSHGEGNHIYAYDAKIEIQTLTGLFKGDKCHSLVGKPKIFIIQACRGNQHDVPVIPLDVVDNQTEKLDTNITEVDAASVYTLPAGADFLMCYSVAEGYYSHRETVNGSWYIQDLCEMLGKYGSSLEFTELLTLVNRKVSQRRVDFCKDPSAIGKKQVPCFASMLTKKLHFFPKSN

[8] = biological target: Caspase-9 (Homo sapiens, UniProt P55211); assay: caspase-9 enzyme inhibition, dose response, selectivity assay for caspase-6 inhibitor project, biochemical, fluorescence, plate reader, cherry-picked samples (AID 743293)
[9] = biological target: Tyrosyl-DNA phosphodiesterase 2 (Homo sapiens, UniProt O95551); assay: human TDP2 enzyme inhibitors, dose response, biochemical, epi absorbance, IC50 (AID 743297)
[10] = biological target: Caspase-7 (Homo sapiens, UniProt P55210); assay: human caspase-7 inhibitors, dose response, selectivity assay for caspase-6 inhibitor project, biochemical, DEVD-R110 fluorescence, cherry-pick (AID 743295)
[11] = biological target: Caspase-8 (Homo sapiens, UniProt Q14790); assay: caspase-8 inhibition counter-screen, dose response, selectivity assay for caspase-6 inhibitor project, biochemical, Z-IETD-R110 fluorescence, cherry-picked samples (AID 743294)
[12] = biological target: T1, Caspase-3; assay: caspase-3 enzyme inhibitors, selectivity check, dose response, selectivity assay for caspase-6 allosteric inhibitor project, biochemical, fluorescence, cherry-picked samples (AID 743291)
[13] = biological target: T6, Methionyl-tRNA synthetase, putative (Trypanosoma brucei brucei, UniProt Q38C91); format: functional, Trypanosoma brucei brucei strain 927/4 GUTat10.1
T6 sequence (Q38C91 whole entry): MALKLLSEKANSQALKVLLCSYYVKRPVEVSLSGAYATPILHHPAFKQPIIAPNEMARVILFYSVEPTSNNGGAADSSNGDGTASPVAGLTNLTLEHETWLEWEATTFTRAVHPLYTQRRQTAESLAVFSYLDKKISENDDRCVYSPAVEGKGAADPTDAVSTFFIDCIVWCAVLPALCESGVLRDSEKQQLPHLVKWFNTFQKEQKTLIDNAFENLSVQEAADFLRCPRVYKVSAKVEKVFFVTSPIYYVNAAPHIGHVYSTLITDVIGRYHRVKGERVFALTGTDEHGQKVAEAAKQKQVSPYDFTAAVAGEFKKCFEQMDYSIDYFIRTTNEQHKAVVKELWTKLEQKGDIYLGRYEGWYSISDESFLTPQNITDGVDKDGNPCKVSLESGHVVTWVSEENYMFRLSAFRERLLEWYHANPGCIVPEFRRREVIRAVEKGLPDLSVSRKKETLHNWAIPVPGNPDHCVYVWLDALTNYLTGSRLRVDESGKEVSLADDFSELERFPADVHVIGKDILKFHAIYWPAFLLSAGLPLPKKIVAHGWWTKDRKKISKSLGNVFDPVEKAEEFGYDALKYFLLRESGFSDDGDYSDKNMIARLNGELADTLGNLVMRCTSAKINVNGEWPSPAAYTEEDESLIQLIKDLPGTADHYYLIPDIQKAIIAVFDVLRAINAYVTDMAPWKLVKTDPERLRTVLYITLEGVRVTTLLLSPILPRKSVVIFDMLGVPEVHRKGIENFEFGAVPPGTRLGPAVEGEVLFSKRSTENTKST

[14] = Counterscreen for inhibitors of Trypanosoma brucei methionyl tRNA synthetase (MetRS): Luminescence-based cell-based high throughput dose response assay to identify compounds that are cytotoxic to Jurkat human T lymphocyte cells.; format: functional
[15] = biological target: T6, Methionyl-tRNA synthetase, putative; format: functional, Trypanosoma brucei brucei strain 927/4 GUTat10.1; remark: listed apart in the source
[16] = Late stage counterscreen for inhibitors of Trypanosoma brucei methionyl tRNA synthetase (MetRS): Luminescence-based cell-based high throughput dose response assay to identify compounds that are cytotoxic to Jurkat human T lymphocyte cells.; format: functional
[17] = A375 melanoma cell viability loss, dose response, counter-screen for MITF inhibitor project, CellTiter-Glo luminescence, dry powder, set 4 (AID 624364); format: functional, cell-based; settings: A-375;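 further: A375 melanoma cells are MITF independent so this is a counter screen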
[18] = A375 melanoma cell cytotoxicity, dose response, counter-screen for MITF inhibitor project, CellTiter-Glo luminescence, dry powder, set 2 (AID 624489); format: functional, cell-based; settings: A-375;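 further: actives are compounds lowering A375 viability meaning general cytotoxicity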
[19] = biological target: T7, DNA repair protein RAD52 homolog (Homo sapiens, UniProt P43351); format: functional, biochemical
T7 sequence (P43351 whole entry): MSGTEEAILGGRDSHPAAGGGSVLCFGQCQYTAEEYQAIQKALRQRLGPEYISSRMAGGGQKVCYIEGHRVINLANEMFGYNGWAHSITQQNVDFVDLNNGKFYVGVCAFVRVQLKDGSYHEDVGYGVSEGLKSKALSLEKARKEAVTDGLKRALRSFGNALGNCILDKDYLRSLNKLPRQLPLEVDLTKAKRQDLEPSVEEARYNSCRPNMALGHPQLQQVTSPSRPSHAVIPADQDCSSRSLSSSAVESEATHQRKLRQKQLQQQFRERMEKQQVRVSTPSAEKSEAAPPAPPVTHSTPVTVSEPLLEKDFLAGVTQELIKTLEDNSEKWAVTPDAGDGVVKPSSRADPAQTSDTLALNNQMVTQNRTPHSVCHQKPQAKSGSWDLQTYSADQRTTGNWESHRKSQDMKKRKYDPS

[20] = HepG2 cell cytotoxicity, dose response, cytotoxicity control, ATP luminescence, cherry-pick, set 6 (AID 1053125); format: functional, cell-based
[21] = cells

Chain of Caspase-7 (P55210 24-198 limits assumed): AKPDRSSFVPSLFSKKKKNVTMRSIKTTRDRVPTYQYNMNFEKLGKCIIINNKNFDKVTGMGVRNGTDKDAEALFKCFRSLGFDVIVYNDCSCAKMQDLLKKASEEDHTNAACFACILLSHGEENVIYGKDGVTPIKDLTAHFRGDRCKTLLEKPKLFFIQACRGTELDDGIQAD
Chain of Caspase-7 (P55210 207-303 limits assumed): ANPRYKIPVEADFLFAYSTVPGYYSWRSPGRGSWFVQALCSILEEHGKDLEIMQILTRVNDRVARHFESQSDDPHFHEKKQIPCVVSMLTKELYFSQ
Chain of Caspase-9 (P55211 1-315 limits assumed): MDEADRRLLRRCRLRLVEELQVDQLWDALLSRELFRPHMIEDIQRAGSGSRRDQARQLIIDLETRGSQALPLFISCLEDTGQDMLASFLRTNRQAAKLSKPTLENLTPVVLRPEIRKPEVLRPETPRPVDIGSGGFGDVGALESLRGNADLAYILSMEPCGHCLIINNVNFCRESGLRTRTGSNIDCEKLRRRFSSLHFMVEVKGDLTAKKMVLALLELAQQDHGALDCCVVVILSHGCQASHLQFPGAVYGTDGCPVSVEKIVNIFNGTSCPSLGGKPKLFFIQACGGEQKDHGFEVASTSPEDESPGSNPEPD
Chain of Caspase-9 (P55211 331-416 limits assumed): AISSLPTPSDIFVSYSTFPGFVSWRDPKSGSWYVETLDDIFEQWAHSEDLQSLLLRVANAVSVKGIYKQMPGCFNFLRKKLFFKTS
Chain of Caspase-8 (Q14790 217-374 limits assumed): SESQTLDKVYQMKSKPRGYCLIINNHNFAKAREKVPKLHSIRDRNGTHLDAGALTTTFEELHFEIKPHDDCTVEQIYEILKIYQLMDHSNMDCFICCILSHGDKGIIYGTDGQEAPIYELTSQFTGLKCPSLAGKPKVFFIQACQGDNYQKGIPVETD
Chain of Caspase-8 (Q14790 385-479 limits assumed): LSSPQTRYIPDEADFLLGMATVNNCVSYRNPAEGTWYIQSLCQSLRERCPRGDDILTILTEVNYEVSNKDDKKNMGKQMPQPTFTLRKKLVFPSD
Chain of Mitochondrial peptide methionine sulfoxide reductase (P54149 whole entry): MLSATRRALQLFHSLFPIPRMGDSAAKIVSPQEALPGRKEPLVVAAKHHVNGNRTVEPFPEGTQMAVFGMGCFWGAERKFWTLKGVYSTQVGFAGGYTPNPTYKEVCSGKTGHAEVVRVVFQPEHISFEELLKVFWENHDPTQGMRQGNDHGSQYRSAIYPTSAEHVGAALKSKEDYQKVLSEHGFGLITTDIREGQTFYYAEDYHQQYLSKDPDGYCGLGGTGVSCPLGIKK
Chain of Tyrosyl-DNA phosphodiesterase 2 (O95551 whole entry): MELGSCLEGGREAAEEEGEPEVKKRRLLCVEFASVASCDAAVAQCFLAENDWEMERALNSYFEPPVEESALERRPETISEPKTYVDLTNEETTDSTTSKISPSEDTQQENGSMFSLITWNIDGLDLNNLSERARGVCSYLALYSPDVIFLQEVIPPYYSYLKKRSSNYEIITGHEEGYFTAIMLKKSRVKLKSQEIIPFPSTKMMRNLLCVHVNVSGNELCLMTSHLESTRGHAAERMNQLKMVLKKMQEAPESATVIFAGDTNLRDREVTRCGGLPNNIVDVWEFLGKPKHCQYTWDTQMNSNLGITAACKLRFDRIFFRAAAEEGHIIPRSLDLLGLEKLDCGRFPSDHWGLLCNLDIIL

SMILES: O=C(OCc1nnc(-c2ccccc2)o1)c1ccc([N+](=O)[O-])s1
- IC50 [1]: 14.3 µM (active)
- IC50 [2]: 10.1 µM (active)
- IC50 [3]: 6.79 µM (active)
- IC50 [4]: 5.56 µM (active)
- IC50 [5]: > 79 µM (inactive)
- EC50 [6]: 33.1 µM (inactive)
- AC50 [7]: 3.66 µM (active)
- AC50 [8]: 18.4 µM (active)
- IC50 [9]: 24.2 µM (inactive)
- AC50 [10]: 14.6 µM (active)
- AC50 [11]: 23.3 µM (active)
- AC50 [12]: 6.9 µM (active)

SMILES: CN1CC(=O)N2C(c3cccc([N+](=O)[O-])c3)c3[nH]c4ccccc4c3C[C@H]2C1=O (stereo partly specified)
- IC50 [13]: 798 nM (active)
- IC50 [14]: 83.3 µM (inactive)
- IC50 [15]: 393 nM (active)
- IC50 [16]: > 83.3 µM (inactive)

SMILES: O=C1C(NS(=O)(=O)c2cccs2)=C(N2CCOCC2)C(=O)c2ccccc21
- AC50 [17]: > 70 µM (inactive)
- AC50 [18]: > 70 µM (inactive)

SMILES: Cc1cccn2c(=O)c3cc(C(N)=S)c(=N)n(CCCN4CCOCC4)c3nc12
- AC50 [19]: 3.43 µM (active)
- AC50 [20]: > 52 µM (inactive)
- AC50 [21]: 5.15 µM (active)
